In patent US12331054B2, “Perk inhibiting imidazolopyrazine compounds” (HiberCell, Inc., priority 2019, dated 2025):
pIC50: −log10 of the molar value.

Columns and labels:
[1] = target: Recombinant human EIF2AK3 (PERK) catalytic domain (amino acids 536-1116) (Homo sapiens (Human), UniProt Q9NZJ5); assay: PERK In Vitro Activity Assay (isolated), TR-FRET kinase assay; details: isolated PERK enzyme, 1.5 μM ATP, read-out: Biochemical IC50
Outline: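 Recombinant PERK catalytic domain was incubated with 100–200 nM GFP-eIF2a substrate in 50 mM HEPES pH 7.5, 10 mM MgCl2, 1.0 mM EGTA and 0.01% Brij-35 for 45 min at room temperature. After a 10 mM EDTA stop, 2 nM Tb-anti-phospho-eIF2a was added for 90 min, and IC50 was fitted from TR-FRET ratios by 4-parameter logistic regression.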

[2] = tested on: eIF2α in HEK293-EGFP-eIF2α cells; assay: PERK Cellular Assay (HEK293-EGFP-eIF2α cells, tunicamycin-induced ER stress, TR-FRET); assay type: cell-based; details: tunicamycin 2 hours
Outline: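 Cells pre-incubated with inhibitor 30 min at 37 °C, then ER stress induced with […] tunicamycin for 2 h. TR-FRET read on lysates; ratio normalized to DMSO control as percent inhibition over a 10-point, 3-fold dilution series; IC50 from 4-parameter logistic fit.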

Recombinant human EIF2AK3 (PERK) catalytic domain (amino acids 536-1116), sequence (Q9NZJ5 536-1116): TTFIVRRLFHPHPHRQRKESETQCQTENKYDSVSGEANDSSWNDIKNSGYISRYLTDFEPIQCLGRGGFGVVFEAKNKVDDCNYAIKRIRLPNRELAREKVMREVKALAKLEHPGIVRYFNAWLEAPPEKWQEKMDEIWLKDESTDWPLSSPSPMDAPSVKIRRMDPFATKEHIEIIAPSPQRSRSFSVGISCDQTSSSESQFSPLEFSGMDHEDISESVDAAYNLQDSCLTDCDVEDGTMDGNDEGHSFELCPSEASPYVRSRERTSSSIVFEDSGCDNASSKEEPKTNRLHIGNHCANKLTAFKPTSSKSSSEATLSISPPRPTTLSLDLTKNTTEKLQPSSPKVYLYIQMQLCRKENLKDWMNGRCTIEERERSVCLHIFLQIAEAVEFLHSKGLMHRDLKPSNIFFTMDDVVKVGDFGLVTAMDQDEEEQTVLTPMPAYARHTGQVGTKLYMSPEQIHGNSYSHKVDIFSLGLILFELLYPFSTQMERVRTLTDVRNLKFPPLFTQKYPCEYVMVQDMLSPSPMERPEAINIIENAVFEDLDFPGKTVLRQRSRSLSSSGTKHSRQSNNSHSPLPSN

| Compound | pIC50 [1] | pIC50 [2] | pIC50 ([2]; 2 h) |
| --- | --- | --- | --- |
| [2H]C([2H])([2H])c1nc(-c2ccc(NC(=O)C(O)c3cc(F)cc(F)c3)cc2C)c2c(N)ncc(C(F)(F)F)n12 (centres unmarked) [Example 47, N-[4-[8-amino-3-(trideuteriomethyl)-5-(trifluoromethyl)imidazo[1,5-a]pyrazin-1-yl]-3-methyl-phenyl]-2-(3,5-difluoro-phenyl)-2-hydroxy-acetamide] | 7.30 to 7.59 | 6.60 to 7.00 | – |
| [2H]C([2H])([2H])c1nc(-c2ccc(NC(=O)C(O)c3cc(F)cc(F)c3)cc2C)c2c(N)ncc(C(F)(F)F)n12 (centres unmarked) [Example 46, N-[4-[8-amino-3-(trideuteriomethyl)-5-(trifluoromethyl)imidazo[1,5-a]pyrazin-1-yl]-3-methyl-phenyl]-2-(3,5-difluoro-phenyl)-2-hydroxy-acetamide] | 7.60 to 9.00 | 7.30 to 7.59 | – |
| [2H]C([2H])([2H])c1nc(-c2ccc(NC(=O)C(O)c3cccc(C(F)(F)F)c3)cc2F)c2c(N)ncc(C(F)(F)F)n12 (centres unmarked) [Example 98, N-[4-[8-amino-3-(trideuteriomethyl)-5-(trifluoromethyl)imidazo[1,5-a]pyrazin-1-yl]-3-fluoro-phenyl]-2-hydroxy-2-[3-(trifluoromethyl)phenyl]acetamide] | 7.60 to 9.00 | 7.30 to 7.59 | – |
| [2H]C([2H])([2H])c1nc(-c2ccc(NC(=O)C(O)c3cc(F)cc(F)c3)cc2F)c2c(N)nc(C)cn12 (centres unmarked) [Example 102, N-[4-[8-amino-6-methyl-3-(trideuteriomethyl)imidazo[1,5-a]pyrazin-1-yl]-3-fluoro-phenyl]-2-(3,5-difluoro-phenyl)-2-hydroxy-acetamide] | 7.60 to 9.00 | 7.60 to 9.00 | – |
| Cc1cc(NC(=O)C(O)c2cccc(Cl)c2)ccc1-c1nc(C)n2c(C)cnc(N)c12 (centres unmarked) [Example 38, N-(4-(8-amino-3,5-dimethylimidazo [1,5-a]pyrazin-1-yl)-3-methyl-phenyl)-2-(3-chlorophenyl)-2-hydroxyacetamide] | 7.60 to 9.00 | 7.60 to 9.00 | – |
| [2H]C([2H])([2H])c1nc(-c2ccc(NC(=O)C(O)c3cccc(C(F)(F)F)c3)cc2C)c2c(N)ncc(C)n12 (centres unmarked) [Example 17, N-[4-[8-amino-5-methyl-3-(trideuteriomethyl)imidazo[1,5-a]pyrazin-1-yl]-3-methyl-phenyl]-2-hydroxy-2-[3-(trifluoromethyl)phenyl]acetamide] | 7.60 to 9.00 | 6.60 to 7.00 | – |
| [2H]C([2H])([2H])c1nc(-c2ccc(NC(=O)C(O)c3cccc(F)c3)cc2C)c2c(N)ncc(C)n12 (centres unmarked) [Example 10, N-(4-(8-amino-5-methyl-3-(trideuteriomethyl)imidazo[1,5-a]pyrazin-1-yl)-3-methylphenyl)-2-(3-fluorophenyl)-2-hydroxyacetamide] | 7.60 to 9.00 | – | 7.60 to 9.00 |

Further lines, with some results ahead:

| pIC50 [1] | Compound | pIC50 [2] | pIC50 ([2]; 2 h) |
| --- | --- | --- | --- |
| 7.60 to 9.00 | [2H]C([2H])([2H])c1nc(-c2ccc(NC(=O)C(O)c3cc(F)cc(C(F)(F)F)c3)cc2F)c2c(N)ncc(C)n12 (centres unmarked) [Example 110, N-[4-[8-amino-5-methyl-3-(trideuteriomethyl)imidazo[1,5-a]pyrazin-1-yl]-3-fluoro-phenyl]-2-[3-fluoro-5-(trifluoromethyl)phenyl]-2-hydroxy-acetamide] | 7.60 to 9.00 | – |
| 7.60 to 9.00 | Cc1c(-c2nc(C)n3c(C)cnc(N)c23)ccc(NC(=O)C(O)c2cccc(F)c2)c1F (centres unmarked) [Example 169, N-(4-(8-amino-3,5-dimethyl-imidazo[1,5-a]pyrazin-1-yl)-2-fluoro-3-methyl-phenyl)-2-(3-fluorophenyl)-2-hydroxy-acetamide] | 7.60 to 9.00 | – |
| 7.60 to 9.00 | [2H]C([2H])([2H])c1nc(-c2ccc(NC(=O)C(O)c3cc(F)cc(F)c3)c(F)c2F)c2c(N)ncc(C)n12 (centres unmarked) [Example 154, N-[4-[8-amino-5-methyl-3-(trideuteriomethyl)imidazo[1,5-a]pyrazin-1-yl]-2,3-difluoro-phenyl]-2-(3,5-difluorophenyl)-2-hydroxy-acetamide] | 7.60 to 9.00 | – |
